Data set [1] concerns HDV. The settings on record: cited from earlier work.
Data set [2] deals with HDV. The following applies: chronically infected animals; cited from earlier work.
Data set [3] concerns hepatitis B surface antigen. The following applies: in vivo; cited from earlier work.
The test system of data set [4] is HDV. The following applies: patients with chronic delta hepatitis; cited from earlier work.
The subject of data set [5] is HDV. The following applies: in vivo, cited from earlier work.
For data set [6], the system named is woodchuck hepatitis virus (WHV). The data set can be described thus: woodchuck chronic hepatitis model, WHV DNA in serum. The class given is in vivo, woodchucks (Marmota monax). The following applies: for activity compared with 3TC (lamivudine): 3TC 10 mg/kg/day; for ng WHV-DNA per ml serum: orally once a day at 10 mg/kg; for activity in the in vivo model / level to which viral load is reduced: woodchucks chronically infected with WHV. The protocol: The efficacy of L-dA, L-dT and L-dC against hepadnavirus infection in woodchucks (Marmota monax) chronically infected with woodchuck hepatitis virus (WHV) was determined. This animal model of HBV infection is widely accepted and has proven to be useful for the evaluation of antiviral agents directed against HBV. There were 3 animals per drug group, and 4 animals per control. In group 1, the animals received a vehicle control; group 2 received lamivudine (3TC) (10 mg/kg/day); groups 3-6 received L-dA (0.01, 0.1, 1.0, 10 mg/kg/day, respectively); groups 7-10 received L-dT (0.01, 0.1, 1.0, 10 mg/kg/day, respectively); and groups 11-14 received L-dC (0.01, 0.1, 1.0, 10 mg/kg/day). […] Assessment of the activity and toxicity was based on the reduction of WHV DNA in serum: dot-blot, quantative PCR.

Data set [7] relates to hepatitis B virus. The data set can be described thus: anti-hepatitis B virus activity in transfected Hep G-2 (2.2.15) cells. The class given is cell-based.
The subject of data set [8] is hepatitis B. The following applies: for IC50: single agent, hepatitis B replication in 2.2.15 cells.
Data set [9] deals with Hep G-2 (2.2.15) cells. Nature of the data set: cytotoxicity in Hep G-2 (2.2.15) cells. The following applies: read-out: Cytotoxicity IC50.
Data set [10] concerns CFU-GM. The data set can be described thus: human bone marrow clonogenic assay, CFU-GM. The following applies: effect on cell growth.
Data set [11] relates to BFU-E. The data set can be described thus: human bone marrow clonogenic assay, BFU-E. The class given is cell-based.
In data set [12] the test system is CFU-GM.
Where [13] appears, read: day 0, limit of detection 1 ng/ml.
Setting [14] is: extracellular DNA, read-out: HBV virions EC50.
Where [15] appears, read: replicative intermediates (intracellular DNA), read-out: HBV Ri EC50.

SMILES strings stand for the structures. Read-outs that look alike come from different tables or passages of the source.

In the case of `Nc1nc2c(ncn2COCCO)c(=O)[nH]1` [Acyclovir], the HDV replication entry in data set [1] (in vitro) is recorded as “enhances HDV replication in vitro”.
Consider `Cc1cn([C@H]2O[C@@H](CO)[C@H](O)[C@H]2F)c(=O)[nH]c1=O` [L-FMAU, 2′-fluoro-5-methyl-beta-L-arabinofuranosyluridine], for which the “inhibition of HDV” value in [2] was “potent inhibitor of HDV”. In data set [3], the “level of hepatitis B surface antigen” value is on record as “significantly reduces the level of hepatitis B surface antigen”.
For `Nc1ccn([C@@H]2CS[C@H](CO)O2)c(=O)n1` [Lamuvidine, β-L-2′,3′-dideoxy-3′-thiacytidine], the “disease activity and HDV-RNA levels” value in data set [4] was “does not improve disease activity or lower HDV-RNA levels”.
In the case of `NC(=O)c1ncn([C@@H]2O[C@H](CO)[C@@H](O)[C@H]2O)n1` [Ribavirin], in data set [5], the side-effects result is given as “severe side-effects” and the “virological or biochemical parameters” value is on record as “did not significantly affect virological or biochemical parameters”.
As to `Cc1ccc(C(=O)Nc2ccc(S(=O)(=O)O)c3cc(S(=O)(=O)O)cc(S(=O)(=O)O)c23)cc1NC(=O)c1cccc(NC(=O)Nc2cccc(C(=O)Nc3cc(C(=O)Nc4ccc(S(=O)(=O)O)c5cc(S(=O)(=O)O)cc(S(=O)(=O)O)c45)ccc3C)c2)c1` [suramin], the toxicity result in [5] (human) is given as “too toxic to be acceptable for long term use in humans”. In data set [1], the “entry of the virion into hepatocytes” value is “blocks the entry of the virion into hepatocytes”.
Consider `Nc1ncnc2c1ncn2[C@@H]1C[C@@H](O)[C@H](CO)O1` [β-L-dA, 2′-Deoxy-β-L-adenosine], for which the “activity compared with 3TC (lamivudine)” value in [6] is given as “more active than 3TC”. Further, the “ng WHV-DNA per ml serum” value in data set [6] (setting [13]) was 436 ng/mL; in [6] (day 1), 369 ng/mL; in data set [6] (day 3), 140 ng/mL; in data set [6] (day 7), 102 ng/mL; in data set [6] (day 14), 74 ng/mL. In addition, the “activity in the in vivo model” value in [6] was “highly active”. Also, the “level to which viral load is reduced” value in [6] was “nearly undetectable”. In addition, the EC50 in [7] (setting [14]) and in [7] (setting [15]) was 100 nM throughout. In addition, the % Inhibition (in general, the share of the control response that was lost under treatment) in [8] (single agent 0.005 μM) worked out at 1%; in data set [8] (single agent 0.05 μM), 24%; in [8] (single agent 0.5 μM), 90%. Besides, the figures for the IC50 in data set [8] and in data set [9] were 90 nM and greater than 200000 nM, respectively. This molecule also came in with a CFU-GM in data set [10] greater than 10 µM. Further, in data set [11] (effect on cell growth, human bone marrow clonogenic assay), the BFU-E is greater than 10 µM.
With `Nc1ccn([C@@H]2C[C@@H](O)[C@H](CO)O2)c(=O)n1` [β-L-dC, 2′-Deoxy-β-L-cytidine], the “activity compared with 3TC (lamivudine)” value in data set [6] is on record as “more active than 3TC”. In addition, the “ng WHV-DNA per ml serum” value stood at 426 ng/mL in data set [6] (setting [13]); 123 ng/mL in [6] (day 1); 62 ng/mL in data set [6] (day 3); 46 ng/mL in data set [6] (day 7); 20 ng/mL in data set [6] (day 14). Besides, the “activity in the in vivo model” value in data set [6] is on record as “highly active”. Moreover, the “level to which viral load is reduced” value in [6] is reported as “nearly undetectable”. Also, the EC50 in data set [7] (setting [14]) and in data set [7] (setting [15]) was 50 nM in each case. Besides, the results for the “% Inhibition” value in data set [8] (single agent 0.005 μM), in data set [8] (single agent 0.05 μM) and in data set [8] (single agent 0.5 μM) were 10%, 40% and 95%, respectively. The IC50 – broadly, the midpoint of a concentration-inhibition curve – in [8] is 60 nM; in data set [9], greater than 200000 nM. The CFU-GM in data set [10] is greater than 10 µM. The molecule further came in with a BFU-E in data set [11] greater than 10 µM.
For the molecule `O=c1[nH]cnc2c1ncn2[C@@H]1C[C@@H](O)[C@H](CO)O1` [β-L-dI, 2′-deoxy-β-L-inosine], the EC50 in data set [7] (setting [14]) and in [7] (setting [15]) was 1000 nM each time. Also, in data set [9], the IC50 was greater than 200000 nM.
With `Cc1cn([C@@H]2C[C@@H](O)[C@H](CO)O2)c(=O)[nH]c1=O` [β-L-dT, 2′-Deoxy-β-L-thymidine], the “activity compared with 3TC (lamivudine)” value in data set [6] is on record as “more active than 3TC”. The “ng WHV-DNA per ml serum” value was found to be 423 ng/mL in data set [6] (setting [13]); 45 ng/mL in data set [6] (day 1); 14 ng/mL in data set [6] (day 3); 6 ng/mL in [6] (day 7); 1 ng/mL in [6] (day 14). Besides, the “viral rebound after withdrawal” value in data set [6] (post-treatment) is reported as “viral rebound is not detected for at least two weeks”. In addition, the “activity in the in vivo model” value in [6] was “highly active”. Besides, the “level to which viral load is reduced” value in data set [6] is given as “undetectable”. Also, the EC50 in data set [7] (setting [14]) and in data set [7] (setting [15]) was 50 nM each time. Also, in data set [12], the CFU-GM was greater than 10 µM. Besides, the IC50 in [9] was greater than 200000 nM. The BFU-E in data set [11] is greater than 10 µM.
`O=c1ccn([C@@H]2C[C@@H](O)[C@H](CO)O2)c(=O)[nH]1` [β-L-dU, β-L-2′-deoxyuridine]: the EC50 in data set [7] (setting [14]) and in data set [7] (setting [15]) was 5000 nM throughout. The same molecule came in with a CFU-GM in [12] greater than 10 µM. In addition, in data set [9], the IC50 is greater than 200000 nM. In [11], this molecule yielded a BFU-E greater than 10 µM.
